Test results reported in patent US20250243196A1, “CITRON KINASE INHIBITORS” (The Cleveland Clinic Foundation, priority 2021, published 2025).

Tests used:
Assay in all cases: KinaseProfiler panel
Type in all cases: biochemical
Details in all cases: activity remaining
[1] = target: Aurora-C(h) (Homo sapiens (Human), UniProt Q9UQB9)
[2] = target: Blk(h) (Homo sapiens (Human), UniProt P51451); design: dose or concentration left out as unconfirmed
[3] = target: BTK(h) (Homo sapiens (Human), UniProt Q06187); design: dose or concentration left out as unconfirmed
[4] = target: CaMKK1(h) (Homo sapiens (Human), UniProt Q8N5S9); design: dose or concentration left out as unconfirmed
[5] = target: CDK12/cyclinK(h) (Homo sapiens (Human), UniProt Q9NYV4); design: dose or concentration left out as unconfirmed
Sequence of CDK12/cyclinK(h) (Q9NYV4 whole entry): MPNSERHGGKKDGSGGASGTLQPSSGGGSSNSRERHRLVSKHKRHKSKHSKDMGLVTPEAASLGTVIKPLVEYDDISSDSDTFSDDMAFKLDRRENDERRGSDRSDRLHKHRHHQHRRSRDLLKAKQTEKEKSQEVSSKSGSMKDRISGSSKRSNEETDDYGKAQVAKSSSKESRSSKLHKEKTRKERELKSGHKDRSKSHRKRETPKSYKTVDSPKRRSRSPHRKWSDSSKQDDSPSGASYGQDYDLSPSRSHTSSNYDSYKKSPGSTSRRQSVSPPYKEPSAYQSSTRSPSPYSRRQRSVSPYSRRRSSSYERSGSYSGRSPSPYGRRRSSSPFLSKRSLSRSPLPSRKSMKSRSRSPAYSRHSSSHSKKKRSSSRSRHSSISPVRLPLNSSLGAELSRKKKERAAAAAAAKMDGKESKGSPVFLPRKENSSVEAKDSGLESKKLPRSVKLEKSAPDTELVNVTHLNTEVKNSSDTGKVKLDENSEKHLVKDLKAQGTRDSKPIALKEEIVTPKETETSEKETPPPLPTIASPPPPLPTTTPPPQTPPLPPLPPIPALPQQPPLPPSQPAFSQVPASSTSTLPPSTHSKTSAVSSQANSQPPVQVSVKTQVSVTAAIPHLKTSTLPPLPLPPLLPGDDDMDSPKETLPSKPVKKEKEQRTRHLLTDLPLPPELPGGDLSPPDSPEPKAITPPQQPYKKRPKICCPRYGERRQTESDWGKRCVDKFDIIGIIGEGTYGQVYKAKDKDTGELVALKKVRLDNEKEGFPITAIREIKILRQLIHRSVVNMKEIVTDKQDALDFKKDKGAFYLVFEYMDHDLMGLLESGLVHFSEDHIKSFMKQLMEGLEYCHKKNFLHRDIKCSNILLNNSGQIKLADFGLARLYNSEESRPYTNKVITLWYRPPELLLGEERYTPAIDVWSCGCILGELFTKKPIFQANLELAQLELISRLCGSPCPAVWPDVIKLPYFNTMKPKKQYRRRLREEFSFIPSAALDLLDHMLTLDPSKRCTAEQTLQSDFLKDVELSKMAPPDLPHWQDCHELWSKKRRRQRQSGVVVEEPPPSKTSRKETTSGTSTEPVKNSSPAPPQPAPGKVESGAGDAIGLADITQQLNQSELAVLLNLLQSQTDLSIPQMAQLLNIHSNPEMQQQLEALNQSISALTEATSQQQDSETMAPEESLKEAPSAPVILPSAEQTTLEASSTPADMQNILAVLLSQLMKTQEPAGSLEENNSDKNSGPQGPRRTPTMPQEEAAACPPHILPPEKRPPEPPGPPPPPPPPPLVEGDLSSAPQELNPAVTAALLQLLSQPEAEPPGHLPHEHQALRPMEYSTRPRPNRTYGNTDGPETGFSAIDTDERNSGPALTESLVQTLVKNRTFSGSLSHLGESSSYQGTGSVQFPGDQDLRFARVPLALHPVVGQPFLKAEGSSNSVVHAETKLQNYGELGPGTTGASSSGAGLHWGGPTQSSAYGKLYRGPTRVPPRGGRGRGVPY
Sequence of CDK12/cyclinK(h) (O75909 whole entry partner): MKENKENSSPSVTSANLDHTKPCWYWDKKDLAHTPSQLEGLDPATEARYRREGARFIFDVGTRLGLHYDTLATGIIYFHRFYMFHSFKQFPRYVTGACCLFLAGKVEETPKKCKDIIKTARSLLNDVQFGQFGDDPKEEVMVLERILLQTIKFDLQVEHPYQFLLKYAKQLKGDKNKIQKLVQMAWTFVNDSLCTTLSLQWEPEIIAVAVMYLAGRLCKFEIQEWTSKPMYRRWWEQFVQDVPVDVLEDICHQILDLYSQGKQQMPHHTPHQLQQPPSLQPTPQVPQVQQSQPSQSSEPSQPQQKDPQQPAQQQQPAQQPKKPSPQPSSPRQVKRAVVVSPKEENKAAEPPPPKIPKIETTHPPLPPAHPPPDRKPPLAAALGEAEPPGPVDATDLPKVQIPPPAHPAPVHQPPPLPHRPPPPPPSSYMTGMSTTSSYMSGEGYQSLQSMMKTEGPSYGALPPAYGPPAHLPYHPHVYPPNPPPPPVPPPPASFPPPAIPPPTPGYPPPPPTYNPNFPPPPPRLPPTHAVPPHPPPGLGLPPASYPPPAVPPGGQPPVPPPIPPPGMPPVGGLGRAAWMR

[6] = target: CDK18/cyclinY(h) (Homo sapiens (Human), UniProt Q07002); design: dose or concentration left out as unconfirmed
[7] = target: CDK2/cyclinE(h) (Homo sapiens (Human), UniProt P24941); design: dose or concentration left out as unconfirmed
[8] = target: CDK5/p25(h) (Homo sapiens (Human), UniProt Q00535); design: dose or concentration left out as unconfirmed
[9] = target: CDK6/cyclinD3(h) (Homo sapiens (Human), UniProt Q00534); design: dose or concentration left out as unconfirmed
Sequence of CDK6/cyclinD3(h) (Q00534 whole entry): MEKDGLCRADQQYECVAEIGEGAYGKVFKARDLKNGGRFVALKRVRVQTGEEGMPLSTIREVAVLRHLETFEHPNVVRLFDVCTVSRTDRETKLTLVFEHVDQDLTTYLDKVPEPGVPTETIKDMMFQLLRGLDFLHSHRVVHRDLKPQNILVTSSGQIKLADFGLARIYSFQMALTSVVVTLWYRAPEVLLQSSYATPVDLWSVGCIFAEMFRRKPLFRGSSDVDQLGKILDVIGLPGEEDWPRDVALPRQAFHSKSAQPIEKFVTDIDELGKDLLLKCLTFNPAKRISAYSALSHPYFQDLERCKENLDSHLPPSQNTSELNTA
Sequence of CDK6/cyclinD3(h) (P30281 whole entry partner): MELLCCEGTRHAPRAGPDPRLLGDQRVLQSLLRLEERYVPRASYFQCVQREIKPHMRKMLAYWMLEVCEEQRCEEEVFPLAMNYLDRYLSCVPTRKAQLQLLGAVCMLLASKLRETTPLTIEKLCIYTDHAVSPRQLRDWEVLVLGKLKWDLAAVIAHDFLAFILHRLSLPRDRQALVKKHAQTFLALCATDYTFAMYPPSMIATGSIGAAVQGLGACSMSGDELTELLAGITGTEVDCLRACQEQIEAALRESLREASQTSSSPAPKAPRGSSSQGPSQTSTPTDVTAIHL

[10] = target: CDK7/cyclinH/MAT1(h) (Homo sapiens (Human), UniProt P50613); design: dose or concentration left out as unconfirmed
[11] = target: CLK3(h) (Homo sapiens (Human), UniProt P49761); design: dose or concentration left out as unconfirmed
[12] = target: DCAMKL1(h) (Homo sapiens (Human), UniProt O15075); design: dose or concentration left out as unconfirmed
[13] = target: EphA1(h) (Homo sapiens (Human), UniProt P21709); design: dose or concentration left out as unconfirmed
[14] = target: EphB3(h) (Homo sapiens (Human), UniProt P54753); design: dose or concentration left out as unconfirmed
[15] = target: ErbB2(h) (Homo sapiens (Human), UniProt P04626); design: dose or concentration left out as unconfirmed
[16] = target: FGFR1(h) (Homo sapiens (Human), UniProt P11362); design: dose or concentration left out as unconfirmed
[17] = target: Fgr(h) (Homo sapiens (Human), UniProt P09769); design: dose or concentration left out as unconfirmed
[18] = target: IGF-1R(h), activated (Homo sapiens (Human), UniProt P08069); design: dose or concentration left out as unconfirmed
[19] = target: JNK2α2(h) (Homo sapiens (Human), UniProt P45984); design: dose or concentration left out as unconfirmed
[20] = target: MAP4K5(h) (Homo sapiens (Human), UniProt Q9Y4K4); design: dose or concentration left out as unconfirmed
[21] = target: MAPK2(h) (Homo sapiens (Human), UniProt P28482); design: dose or concentration left out as unconfirmed
[22] = target: MARK4(h) (Homo sapiens (Human), UniProt Q96L34); design: dose or concentration left out as unconfirmed
Sequence of MARK4(h) (Q96L34 whole entry): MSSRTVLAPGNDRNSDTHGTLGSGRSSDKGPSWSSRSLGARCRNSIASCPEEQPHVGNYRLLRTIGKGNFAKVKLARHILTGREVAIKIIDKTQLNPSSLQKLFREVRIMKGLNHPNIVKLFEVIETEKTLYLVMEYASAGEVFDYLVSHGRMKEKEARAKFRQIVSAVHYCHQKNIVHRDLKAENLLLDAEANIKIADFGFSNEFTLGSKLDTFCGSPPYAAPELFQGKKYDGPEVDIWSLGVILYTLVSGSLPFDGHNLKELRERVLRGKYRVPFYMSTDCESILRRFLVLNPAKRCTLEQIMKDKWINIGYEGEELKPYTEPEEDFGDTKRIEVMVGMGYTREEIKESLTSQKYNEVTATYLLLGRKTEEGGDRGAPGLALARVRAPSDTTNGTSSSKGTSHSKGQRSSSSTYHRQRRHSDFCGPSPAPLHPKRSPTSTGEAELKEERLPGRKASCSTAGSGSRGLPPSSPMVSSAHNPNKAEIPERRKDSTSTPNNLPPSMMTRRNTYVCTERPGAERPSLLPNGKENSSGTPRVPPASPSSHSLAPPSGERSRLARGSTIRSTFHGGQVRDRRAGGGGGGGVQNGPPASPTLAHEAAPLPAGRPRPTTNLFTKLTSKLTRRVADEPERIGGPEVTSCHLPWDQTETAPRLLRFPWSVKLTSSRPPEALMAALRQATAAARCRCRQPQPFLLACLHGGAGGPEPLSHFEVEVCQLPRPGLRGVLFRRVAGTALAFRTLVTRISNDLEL

[23] = target: MuSK(h) (Homo sapiens (Human), UniProt O15146); design: dose or concentration left out as unconfirmed
[24] = target: PI3 Kinase (p120g)(h) (Homo sapiens (Human), UniProt P48736)
[25] = target: PKCζ(h) (Homo sapiens (Human), UniProt Q05513); design: dose or concentration left out as unconfirmed
[26] = target: PKCι(h) (Homo sapiens (Human), UniProt P41743); design: dose or concentration left out as unconfirmed
[27] = target: PKCμ(h) (Homo sapiens (Human), UniProt Q15139); design: dose or concentration left out as unconfirmed
[28] = target: PRKG2(h) (Homo sapiens (Human), UniProt Q13237); design: dose or concentration left out as unconfirmed
[29] = target: SLK(h) (Homo sapiens (Human), UniProt Q9H2G2); design: dose or concentration left out as unconfirmed
Sequence of SLK(h) (Q9H2G2 whole entry): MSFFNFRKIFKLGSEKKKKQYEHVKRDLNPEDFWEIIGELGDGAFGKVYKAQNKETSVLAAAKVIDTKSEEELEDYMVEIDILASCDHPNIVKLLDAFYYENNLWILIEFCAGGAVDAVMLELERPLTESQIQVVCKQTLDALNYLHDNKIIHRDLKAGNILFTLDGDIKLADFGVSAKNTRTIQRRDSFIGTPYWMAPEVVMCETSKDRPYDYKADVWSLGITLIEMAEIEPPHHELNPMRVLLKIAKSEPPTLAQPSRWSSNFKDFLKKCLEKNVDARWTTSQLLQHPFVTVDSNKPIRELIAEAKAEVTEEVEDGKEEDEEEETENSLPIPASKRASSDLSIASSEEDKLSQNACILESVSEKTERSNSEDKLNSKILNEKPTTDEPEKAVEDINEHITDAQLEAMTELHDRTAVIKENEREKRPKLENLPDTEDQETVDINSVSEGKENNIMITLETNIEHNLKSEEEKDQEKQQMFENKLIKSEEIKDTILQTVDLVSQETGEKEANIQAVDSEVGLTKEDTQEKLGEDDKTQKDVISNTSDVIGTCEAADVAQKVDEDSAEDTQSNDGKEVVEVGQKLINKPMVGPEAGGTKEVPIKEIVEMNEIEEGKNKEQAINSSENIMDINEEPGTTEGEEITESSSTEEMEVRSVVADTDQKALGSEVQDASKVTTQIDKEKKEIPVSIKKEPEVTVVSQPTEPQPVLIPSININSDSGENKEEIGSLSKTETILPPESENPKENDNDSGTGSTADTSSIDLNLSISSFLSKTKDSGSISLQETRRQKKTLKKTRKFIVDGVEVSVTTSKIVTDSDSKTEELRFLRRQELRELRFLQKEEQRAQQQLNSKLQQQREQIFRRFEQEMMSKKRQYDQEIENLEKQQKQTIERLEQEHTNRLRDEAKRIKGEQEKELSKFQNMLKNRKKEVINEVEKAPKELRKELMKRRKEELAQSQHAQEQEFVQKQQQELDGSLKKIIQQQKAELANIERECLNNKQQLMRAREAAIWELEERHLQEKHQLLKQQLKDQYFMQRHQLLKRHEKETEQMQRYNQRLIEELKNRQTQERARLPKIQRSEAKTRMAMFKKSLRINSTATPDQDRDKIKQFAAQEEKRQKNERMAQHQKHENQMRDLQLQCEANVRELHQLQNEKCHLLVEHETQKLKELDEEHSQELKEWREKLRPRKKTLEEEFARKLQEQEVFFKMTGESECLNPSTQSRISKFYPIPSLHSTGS

[30] = target: Syk(h) (Homo sapiens (Human), UniProt P43405); design: dose or concentration left out as unconfirmed
[31] = target: TNIK(h) (Homo sapiens (Human), UniProt Q9UKE5)
[32] = target: TYK2(h) (Homo sapiens (Human), UniProt P29597); design: dose or concentration left out as unconfirmed
[33] = target: VRK2(h) (Homo sapiens (Human), UniProt Q86Y07); design: dose or concentration left out as unconfirmed

Sequence of Aurora-C(h) (Q9UQB9 whole entry): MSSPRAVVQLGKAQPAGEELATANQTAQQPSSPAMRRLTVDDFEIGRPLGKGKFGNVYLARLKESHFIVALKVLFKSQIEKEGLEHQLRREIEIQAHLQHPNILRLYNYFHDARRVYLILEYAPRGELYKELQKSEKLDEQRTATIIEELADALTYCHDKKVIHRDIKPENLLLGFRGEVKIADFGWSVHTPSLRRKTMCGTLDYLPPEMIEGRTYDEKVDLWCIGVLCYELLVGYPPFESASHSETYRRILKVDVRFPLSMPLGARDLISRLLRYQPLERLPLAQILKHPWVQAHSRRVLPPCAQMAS

Structure (SMILES): Cc1cc2c(-c3ccc(NC(=O)[C@H](N)CC(C)(C)C)cc3C)ccnc2[nH]1 [Compound F-90, (2R)-2-Amino-4,4-dimethyl-N-[3-methyl-4-(2-methyl-1H-pyrrolo[2,3-b]pyridin-4-yl)phenyl]pentanamide]
- % Activity [1]: 94%
- % Activity [2]: 88%
- % Activity [3]: 122%
- % Activity [4]: 89%
- % Activity [5]: 89%
- % Activity [6]: 94%
- % Activity [7]: 92%
- % Activity [8]: 72%
- % Activity [9]: 90%
- % Activity [10]: 95%
- % Activity [11]: 107%
- % Activity [12]: 95%
- % Activity [13]: 92%
- % Activity [14]: 79%
- % Activity [15]: 97%
- % Activity [16]: 100%
- % Activity [17]: 97%
- % Activity [18]: 93%
- % Activity [19]: 99%
- % Activity [20]: 92%
- % Activity [21]: 109%
- % Activity [22]: 92%
- % Activity [23]: 96%
- % Activity [24]: 105%
- % Activity [25]: 88%
- % Activity [26]: 110%
- % Activity [27]: 109%
- % Activity [28]: 110%
- % Activity [29]: 109%
- % Activity [30]: 66%
- % Activity [31]: 93%
- % Activity [32]: 103%
- % Activity [33]: 100%
